# In PMC9351488 (Proceedings of the National Academy of Sciences of the …, 2022):
# Where a name gives a salt, the structure may show the parent alone.
# Legend:
# Assay type in all cases: in vivo, mouse
# [1] = tested on: spinal cord of naïve WT mice; assay: Spinal cord immunohistochemistry; settings: i.t. daily for 7 d, H-20 30 nmol or morphine 2 nmol
# [2] = tested on: mice; assay: Antinociceptive tolerance in CFA model; settings: i.t. 7 consecutive days, H-20 30 nmol or morphine 20 nmol
# [3] = tested on: mice; assay: Conditioned place preference; settings: i.t. H-20 30 nmol or morphine 2 nmol
# [4] = tested on: mice; assay: Open field test; settings: i.t., 30 min before test
# [5] = tested on: mice; assay: Rotarod test; settings: i.t. H-20 30 nmol or morphine 2 nmol, 15 to 120 min
# [6] = tested on: naïve WT mice; assay: Acute itch behaviors; settings: i.t., counted within 30 min, morphine 2 nmol
smiles,measurement,setting,value
"CN1CC[C@]23c4c5ccc(O)c4O[C@H]2[C@@H](O)C=C[C@H]3[C@H]1C5 [morphine, Morphine hydrochloride]",microglial activation in spinal cord,[1],induced significant microglial activation
same,number of c-Fos–positive neurons in spinal cord,[1],markedly increased the number of c-Fos–positive neurons
same,antiallodynic effect after repeated injection (tolerance),[2],significantly decreased on test day 7
same,CPP response,[3],significant increase in the drug-treated chamber
same,time in center area and frequency of entry into central zone (anxiety),[4],No intergroup differences were observed
same,time on rotarod,[5],did not change the length of time
same,itch-related scratching behaviors,[6],significantly evoked itch-related scratching behaviors
